The record followed here is patent publication US9056835B2, “LPA2 receptor-specific benzoic acid derivatives” (University of Tennessee Research Foundation, priority 2012, dated 2015).

The subject of assay [1] is vector- and LPA2-transduced MEF cells. Description: Serum withdrawal-induced apoptosis (caspase activity, DNA fragmentation). The note with it: for reduction of apoptotic indicators: vector-transduced MEF. It counts as cell-based, mouse. Here is the method:
Experiments were performed on vector- and LPA2-transduced MEF cells. To measure caspase 3, 7, 8, or 9 activity and DNA fragmentation, cells were plated in 48-well plates (2×10^4 cells/well). To detect PARP-1 cleavage and Bax translocation, 1.5×10^6 cells were plated in 10-cm dishes and cultured overnight in full growth medium. The next morning, the growth medium was replaced by serum-starvation medium and cells were pretreated for 1 h with LPA (1-10 μM), OTP (1-10 μM), GRI977143 (1-10 μM), or vehicle. Caspase activity, DNA fragmentation, PARP-1 cleavage, and Bax translocation were measured 5 h after incubation with 1.7 μM Adriamycin or 24 h after serum withdrawal.
Caspase-Glow® 3/7, Caspase-Glow® 8 and Caspase-Glow® 9 reagents were purchased from Promega (Madison, Wis.) and used according to the manufacturer's instructions. Briefly, cells were lysed by adding 50 μl of lysis reagent per well, followed by shaking for 30 min at room temperature. […] lysate were transferred to a 96-well white-wall plate, and luminescence was measured using a BioTek® (Winooski, Vt.) plate reader.
Apoptotically-challenged cells were washed twice with PBS, and a quantitative DNA fragmentation assay was carried out using a Cell Death Detection ELISA PLUS kit (Roche Diagnostics, Penzberg, Germany) and normalized to protein concentration using the BCA Protein Assay Kit (Thermo Fisher Scientific, Inc.; Rockford, Ill.) as described previously (Valentine et al., 2010). Aliquots of nuclei-free cell lysate were placed in streptavidin-coated wells and incubated with anti-histone-biotin antibody and anti-DNA peroxidase-conjugated antibody for 2 h at room temperature. After the incubation, the sample was removed, and the wells were washed and incubated with 100 μl 2,2′-azino-di[3-ethylbenzthiazolin-sulfonate substrate at room temperature before the absorbance was read at 405 nm. Results were expressed as absorbance at 405 nm/min/mg protein as detailed in our previous report (Ray et al., Mdm2 inhibition induces apoptosis in p53 deficient human colon cancer cells by activating p73- and E2F1-mediated expression of PUMA and Siva-1. Apoptosis (2011) 16(1): 35-44).

The target of the next assay is P2Y10 (Homo sapiens, UniProt O00398). In words: LPA receptor-mediated Ca2+ mobilization assay, P2Y10. It counts as cell-based. The note with it: for inhibition of P2Y10 Ca2+ response: 10 μM, ~EC75 LPA 18:1; for P2Y10 Imax (%): inhibition by 10 μM compound of ~EC75 LPA 18:1 Ca2+ response; for EC50: agonist, Ca2+ mobilization. The protocol: Similarity searches were performed separately using each fingerprint to quantitate similarity. Hits meeting the 80% similarity threshold from each search were ranked based on the Tanimoto coefficient measure of similarity to a target molecule NSC12404, and the top 75 unique hits from each fingerprint search were selected for further analysis. The 225 compounds selected for further analysis were clustered based on Tanimoto coefficients calculated using Molecular ACCess System-key fingerprints (MACCS keys) and evaluated using the diversity subset function implemented in MOE. This selected a diverse subset of 27 compounds for biological evaluation by choosing the middle compounds in each cluster. These 27 compounds were tested in Ca^2+ mobilization assays at a concentration of 10 μM using stable cell lines individually expressing LPA2 and also in vector-transfected control cells. Hits activating LPA2 were further tested using cells expressing the other established and putative LPA GPCRs. Experimental testing of the selected compounds identified the three new selective LPA2 agonists: GRI977143, H2L5547924, and H2L5828102. […] They arbitrarily selected GRI977143 for further characterization in cell-based assays.
Chain of P2Y10 (O00398 whole entry): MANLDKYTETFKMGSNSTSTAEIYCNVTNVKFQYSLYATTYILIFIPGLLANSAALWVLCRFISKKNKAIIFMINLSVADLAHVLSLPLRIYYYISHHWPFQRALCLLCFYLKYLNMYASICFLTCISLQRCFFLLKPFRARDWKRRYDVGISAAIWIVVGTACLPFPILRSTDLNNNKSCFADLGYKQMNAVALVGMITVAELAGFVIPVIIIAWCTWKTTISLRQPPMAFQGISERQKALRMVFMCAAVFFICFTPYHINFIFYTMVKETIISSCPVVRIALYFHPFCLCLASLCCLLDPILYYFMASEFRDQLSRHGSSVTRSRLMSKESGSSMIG
J Biol Chem (2009) 284(25): 17304-17319). […] The cells were loaded with Fura-2-acetoxymethyl esther (Fura-2/AM) in Krebs buffer containing 0.01% pluronic acid for 30 min and rinsed with Krebs buffer before measuring Ca^2+ mobilization. The ratio of peak emissions at 510 nm after 2 min of ligand addition was determined for excitation wavelengths of 340 nm/380 nm. All samples were run in quadruplicate. […] The half maximally effective concentration (EC50), and inhibitory constant (Ki) values were calculated by fitting a sigmoid function to dose-response data points using KaleidaGraph software (version 4.1, Synergy Software; […]).
Mouse embryonic fibroblast (MEF) cells were isolated from E13.5 LPA1&2 double knockout (DKO) embryos. MEFs were transduced with empty vector or LPA2-containing lentiviruses and selected with 1.5 μg/ml puromycin. Cells were maintained in Dulbecco's modified Eagle medium (DMEM) supplemented with 10% (V/V) fetal bovine serum (FBS), 2 mM L-glutamine, 100 U/mL penicillin, and 100 μg/mL streptomycin. Serum-free medium contained 0.1% (W/V) BSA in DMEM. The rat intestinal epithelial cell line 6 (IEC-6) was obtained from the American Type Culture Collection (Rockville, Md.) at passage 13; passages 16-21 were used in all experiments. IEC-6 cells were maintained in a humidified 37° C. incubator in an atmosphere of 90% air and 10% CO2. Growth medium consisted of DMEM supplemented with 5% heat inactivated FBS, 10 μg/mL insulin, and 50 μg/mL gentamycin. The composition of the serum-starvation medium was the same as that of the full growth medium except that it contained no FBS. The McArdle rat hepatoma cell line (RH7777) stably expressing LPA2 receptors was a gift from Dr. Fumikazu Okajima (Gunma University, Maebashi, Japan). RH7777 cells stably expressing LPA1 or LPA3 receptors were generated in-house and had been characterized earlier. Wild type and LPA receptor (LPAR) stably transfected RH7777 cells were grown in DMEM supplemented with 10% FBS and 2 mM L-glutamine in the presence of 250 μg/ml G418. Chinese hamster ovary (CHO) cells stably expressing either vector or LPA4 receptor were a kind gift from Dr. Takao Shimizu (Tokyo University; Tokyo, Japan). Cells were cultured in Ham's F12 medium containing 10% FBS, 2 mM L-glutamine, and 350 μg/ml G418. Rat neuroblastoma cells (B103) were transduced with the lentivirus harboring wild type of FLAG-LPA5 and selected with puromycin to establish the stable cell lines. The stable cells were maintained in DMEM supplemented with 10% FBS and 0.4 μg/ml puromycin. GPR87- and P2Y10-expressing CHO cells and vector-transfected control cells were a gift from Dr. Norihisha Fujita (Ritsumeikan University; Shiga, Japan). […]

Turning to octadecenyl thiophosphate [OTP], the “reduction of apoptotic indicators” value in assay [1] is “protected the vector-transduced MEF cells too”.

For the compound `O=C(O)c1cc(Cl)c(Cl)cc1C(=O)Nc1ccc2c(c1)C(=O)c1ccccc1-2` [Compound H2L5547924], on P2Y10, the “inhibition of P2Y10 Ca2+ response” value was “partially inhibited” and the “P2Y10 Imax (%)” value turned out to be 34%.

`O=C(O)c1ccccc1C(=O)Nc1ccc2c(c1)C(=O)c1ccccc1C2=O` [Compound H2L5828102]: on P2Y10, the “inhibition of P2Y10 Ca2+ response” value is reported as “partially inhibited” and the “P2Y10 Imax (%)” value is 39%.

As to `O=C(O)c1ccccc1C(=O)Nc1ccc2c(c1)C(=O)c1ccccc1-2` [NSC12404], the EC50 on P2Y10 was above 10 µM.

Regarding `CCCCCCCC/C=C\CCCCCCCC(=O)OC[C@@H](O)COP(=O)(O)O` [LPA 18:1, Lysophosphatidic acid (18:1)], the “reduction of apoptotic indicators” value in assay [1] was “protected the vector-transduced MEF cells too”. For the same compound, the EC50 on P2Y10 came out at 0.029 µM.

In the case of `O=C(O)c1ccccc1SCCCN1C(=O)c2cccc3cccc(c23)C1=O` [GRI977143], in assay [1] (LPA2-transduced MEF, 10 μM), the DNA fragmentation result is on record as “attenuated DNA fragmentation”; the “reduction of caspase 3, 7, 8, and 9 activation” value is listed as “highly effective”. Besides, the “reduction of apoptotic indicators” value in assay [1] is “failed to cause any reduction”. For the same compound, the EC50 at P2Y10 is above 10 µM.
